Columns and labels:
[1] = tested on: MMP-9, MMP2 and uPA in breast tumor cells MDA-MB-231; assay: Zymography enzyme activity assay; format: cell-based, human; settings: MDA-MB-231, with dose increasing, FIG. 8B
Source text: Referring to FIG. 8B, the Zymography enzyme activity assay was used to detect effect of the compound II in different doses on enzyme activities of the MMP-9, MMP2 and uPA in the breast tumor cells MDA-MB-231. Moreover, referring to FIG. 9, the Zymography enzyme activity assay was used to detect effect of the compound I on enzyme activities of the MMP-9 and MMP2 in the human normal breast cells MCF-10A stimulated by TNF-α/TGF-β. In the Zymography enzyme activity assay, the cells (1×10^6) were planted in a 6-well plate. The next day after the cells were adhered to the wall, the cells were cultured in a serum free DMEM culture medium at an atmosphere of 5% CO2 in an incubator at 37° C. for 24 h. The compound II in different doses were added into the DMEM culture medium. In other test groups, the compound I was added, TNF-α/TGF-β were added or the compound I and TNF-α/TGF-β were added into the DMEM culture medium, wherein the concentration of compound I and TNF-α/TGF-β were 2 mM and 10 ng/ml, respectively. The cells were cultured in the culture medium for 2 h and then washed with PBS. The cell culture medium was putted into a microcentrifuge tube and centrifuged for 10 min at 1500 rpm. The supernatant was taken to perform a protein gel electrophoresis (SDS-PAGE), so as to separate the proteins. […]

[2] = tested on: Rat Skin Tumor Cell (B16F1 cell strain); assay: MTT cell viability assay; format: cell-based; settings: Mus musculus, B16-F1
[3] = tested on: EMT-related proteins in breast tumor cells MCF-7; assay: western blotting of EMT-related proteins; format: cell-based, human; settings: MCF-7, 10, 15 and 20 μM, 24 h, with dose increasing
Description: (§1) FIG. 2A illustrates the expression results of EMT-related proteins in breast tumor cells MDA-MB-231 after the breast tumor cells MDA-MB-231 have been respectively cultured under compound II having concentrations of 0, 0.5, 1 and 2 μM for 24 h; and FIG. 2B illustrates the expression results of EMT-related proteins in breast tumor cells MCF-7 after the breast tumor cells MCF-7 have been respectively cultured under the compound II having concentrations of 0, 10, 15 and 20 μM for 24 h. FIG. 3A illustrates the western blotting results of EMT-related proteins in the breast tumor cells MDA-MB-468, where the breast tumor cells MDA-MB-468 are treated with the compound I having concentrations of 0, 0.5, 1 and 2 μM for 24 h, and FIG. 3B illustrates the western blotting results of EMT-related proteins in the breast tumor cells MDA-MB-435, where the breast tumor cells MDA-MB-435 are treated with the compound I having concentrations of 0, 2.5, 5 and 7.5 μM for 24 h. FIG. 4 illustrates the western blotting results of EMT-related proteins in the human normal breast cells MCF-10A stimulated by TNF-α/TGF-β, where the human normal breast cells MCF-10A are treated with the compound I having concentrations of 2 μM for 24 h. The human normal breast cells stimulated by TNF-α/TGF-β can cause TNF-α/TGF-β-induced EMT in the human normal breast cells MCF-10A. The steps of western blotting include: washing cells with PBS twice at 4° C.; adding a lysis buffer and rubbing the cells by a rubbr policeman so as to lyse cells; putting the lysed cell solution into a 1.5 ml microcentrifuge tube and shaking for 1 min; centrifuging at 12000 rpm for 10 min and taking the supernatant; measuring concentration of the protein through a Bio-Rad protein assay kit; and storing the remained extracted protein solution at −70° C.; taking 100 μg protein solution and adding a SDS/protein loading buffer having the same volume, where the SDS/protein loading buffer has a concentration two times larger than the protein solution; boiling the mixture of the protein solution and the SDS/protein loading buffer at 100° C. for 10 min; cooling and loading the protein samples in each hole of gel; adjusting the voltage to 100 V and running the protein samples on the gel until the tracking dye in the sample buffer reaches the bottom of the gel; and subsequently transferring the protein from the gel using electrophoresis. A PVDF membrane was soaked in methanol until the paper was totally wet. The paper was arranged in a transfer tank placed in a 4° C. ice box, and the protein transfer was performed at a current of […] for 4 h. The PVDF membrane was then taken out, placed in a PBS blocking solution including 1% BSA and shaken for 2 h. Then the PVDF membrane was placed in a blocking solution including a primary antibody and slowly shaken at 100 rpm for 1 h at the room temperature. Subsequently the PVDF membrane was washed with PBST for third times, each time for 3-5 min. According to different […] and different dilution ratios, the PVDF membrane was shaken for 2 h on a horizontal rotator and then washed with PBST for three times. Then luminescence image equipment was used, where the PVDF was placed onto a black metal plate by a plastic pincer and the face including protein was upwards, a 1:1 mixed Chemiluminesent Substrate was added into the membrane and the exposure time depends on the fluorescence intensity of antibodies.

[4] = tested on: EMT-related proteins in breast tumor cells MDA-MB-435; assay: western blotting of EMT-related proteins; format: cell-based, human; settings: MDA-MB-435, 2.5, 5 and 7.5 μM, 24 h, with dose increasing
Description: as §1

[5] = tested on: EMT-related proteins in breast tumor cells MDA-MB-468; assay: western blotting of EMT-related proteins; format: cell-based, human; settings: MDA-MB-468, 0.5, 1 and 2 μM, 24 h, with dose increasing
Description: as §1

Compound | enzyme activities of MMP-2, MMP-9 and uPA [1] | IC50 [2] [µM] | expression amount of E-cadherin, p-β-catenin and occludin [3] | expression amount of proteins facilitating tumor cell proliferation (Twist, Snail, vimentin, β-catenin) [3] | expression amount of E-cadherin and occludin [4] | expression amount of proteins facilitating tumor cell proliferation (Snail, vimentin, β-catenin) [4] | expression amount of E-cadherin and occludin [5] | expression amount of proteins facilitating tumor cell proliferation (Snail, vimentin, β-catenin) [5]
COC1=C(OC)C(=O)C(C)=C(C)C1=O [compound II] | decreased | 12.8 | increased | decreased |  |  |  | 
COC1=C(OC)C(=O)C(C)=CC1=O [compound I] |  |  |  |  | increased | decreased | increased | decreased

Source: patent publication US20150087722A1, “TREATMENT FOR BREAST TUMOR CELL METASTASIS” (China Medical University, priority 2012, published 2015)
